# Measurements published in patent publication US12084462B2, “Spiro bicyclic inhibitors of menin-MLL interaction” (Janssen Pharmaceutica NV, priority 2016, dated 2024).
# Values joined by “and” are separate entries in the source; they are usually repeats but may differ in a detail not shown here. Equal entries are not always repeated. Where two headings read alike, the source gives them in different places.
# Assays:
# [1] = tested on: K562; assay: Proliferation assay (spheroid assay) K562, control cell line; type: cell-based; conditions: Homo sapiens
# Procedure: (§1) The anti-proliferative effect of menin/MLL protein/protein interaction inhibitor test compounds was assessed in human leukemia cell lines. The cell lines MV-4-11 and MOLM14 harbor MLL translocations and express the MLL fusion proteins MLL-AF4 and MLL-AF9, respectively, as well as the wildtype protein from the second allele. […] K562 and KG1 were used as a control cell lines containing two MLL wildtype alleles in order to exclude compounds that display general cytotoxic effects.
# (§2) MV-4-11 and MOLM14 were cultured in RPMI-1640 (Sigma Aldrich) supplemented with 10% fetal bovine serum (HyClone), 2 mM L-glutamine (Sigma Aldrich) and 50 μg/ml gentamycin (Gibco). K562 were propagated in RPMI-1640 (Sigma Aldrich) supplemented with 20% fetal bovine serum (HyClone), 2 mM L-glutamine (Sigma Aldrich) and 50 μg/ml gentamycin (Gibco). KG1 were cultured in Iscove's MDM (Gibco) supplemented with 20% fetal bovine serum (HyClone), 2 mM L-glutamine (Sigma Aldrich) and 50 μg/ml gentamycin (Gibco).
# (§3) In order to assess the anti-proliferative effects, 1,500 MV-4-11, 300 MOLM14, 750 K562 or 1,300 KG1 cells were seeded in 200 μl media per well in 96-well round bottom, ultra-low attachment plates (Costar, catalogue number 7007). Cell seeding numbers were chosen based on growth curves to ensure linear growth throughout the experiment. Test compounds were added at different concentrations and the DMSO content was normalized to 0.3%. Cells were incubated for 8 d at 37° C. and 5% CO2. Spheroid like growth was monitored in real-time by live-cell imaging (IncuCyteZOOM, Essenbio, 4× objective) acquiring one image every four hours for 8 d. Confluence (%) as a measure of spheroid size was determined using an integrated analysis tool.
# (§4) In order to determine the cumulative effect of the test compounds over time, the area under the curve (AUC) in a plot of confluence against time was calculated. Confluence at the beginning of the experiment (t=0) was used as baseline for the AUC calculation.
# (§5) Absolute IC50 values were calculated according to the following procedure: % Control=(AUC sample/AUC control)*100 AUC control=mean AUC of control values (cells without compound/DMSO as vehicle control)
# (§6) A non-linear curve fit was applied using the least squares (ordinary) fit method to the plot of % control versus compound concentration. Based on this, the absolute IC50 value (half maximal inhibitory concentration of the test compound causing an anti-proliferative effect of 50% relative to the vehicle control) was calculated.
# [2] = tested on: KG1; assay: Proliferation assay (spheroid assay) KG1, control cell line; type: cell-based; conditions: Homo sapiens
# Procedure: as §1, §2, §3, §4, §5, §6
# [3] = tested on: MV-4-11; assay: Proliferation assay (spheroid assay) MV-4-11; type: cell-based, human
# Outline: (§7)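 Cells grown as spheroids in ultra-low attachment round-bottom wells with compound at varied concentrations (0.3% DMSO) for 8 d at 37 °C; confluence imaged every 4 h. AUC of confluence over time (t=0 baseline) expressed as % of vehicle control; absolute IC50 from nonlinear least-squares fit.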
# [4] = tested on: MOLM14; assay: Proliferation assay (spheroid assay) MOLM14; type: cell-based, human
# Outline: as §7
# [5] = target: T1, menin (Homo sapiens, UniProt O00255, T541A); assay: Menin/MLL fluorescence polarization (FP) assay; type: binding
# T1 sequence (O00255 with tags, fused parts or gaps T541A): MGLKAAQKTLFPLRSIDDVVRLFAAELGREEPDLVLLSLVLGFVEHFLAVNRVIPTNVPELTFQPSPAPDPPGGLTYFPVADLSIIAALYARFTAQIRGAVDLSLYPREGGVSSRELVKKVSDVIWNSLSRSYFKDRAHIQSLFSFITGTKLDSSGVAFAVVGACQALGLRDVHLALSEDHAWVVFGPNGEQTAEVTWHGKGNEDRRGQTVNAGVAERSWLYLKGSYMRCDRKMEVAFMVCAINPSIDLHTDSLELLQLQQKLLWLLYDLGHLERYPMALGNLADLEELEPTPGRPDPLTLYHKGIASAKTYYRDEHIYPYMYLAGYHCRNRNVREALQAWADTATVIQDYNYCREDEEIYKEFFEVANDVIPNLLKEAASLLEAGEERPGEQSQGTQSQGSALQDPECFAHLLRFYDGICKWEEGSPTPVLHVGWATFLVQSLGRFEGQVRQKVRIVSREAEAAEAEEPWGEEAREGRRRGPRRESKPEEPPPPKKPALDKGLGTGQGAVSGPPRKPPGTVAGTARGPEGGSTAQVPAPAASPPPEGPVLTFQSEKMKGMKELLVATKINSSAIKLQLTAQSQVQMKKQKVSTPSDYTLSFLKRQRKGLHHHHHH
# Procedure: 1) Menin/MLL Fluorescence Polarization Assay
# To a non-surface binding, black 384-well microtiter plate was added 50 nL 160× test compound in DMSO and 4 μL 2× menin in assay buffer (40 mM Tris·HCl, pH 7.5, 50 mM NaCl, 1 mM DTT and 0.001% Tween 20). After incubation of test compound and menin for 10 min at ambient temperature, 4 μL 2×FITC-MBM1 peptide (FITC-β-alanine-SARWRFPARPGT-NH2 (SEQ ID NO: 2)) in assay buffer was added, the microtiter plate centrifuged at 1000 rpm for 1 min and the assay mixtures incubated for 15 min at ambient temperature. The relative amount of menin·FITC-MBM1 complex present in an assay mixture is determined by measuring the fluorescence polarization (FP) of the FITC label with a BMG Pherastar plate reader (ex. 485 nm/em. 520 nm) at ambient temperature. The final concentrations of reagents in the binding assay are 100 nM menin, 5 nM FITC-MBM1 peptide and 0.625% DMSO in assay buffer. Dose-response titrations of test compounds are conducted using an 11 point, three-fold serial dilution scheme, starting at 31 μM.
# Compound potencies were determined by first calculating % inhibition at each compound concentration according to equation 1: % inhibition=((HC−LC)−(FP^compound−LC))/(HC−LC))*100 (Eqn 1)
# Where LC and HC are the FP values of the assay in the presence or absence of a saturating concentration of a compound that competes with FITC-MBM1 for binding to menin, and FP^compound is the measured FP value in the presence of the test compound. HC and LC FP values represent an average of at least 16 replicates per plate. […] 2) Proliferation Assay
# [6] = K562 control cell line, averaged values, read-out: Spheroid assay K562 (IC50 (μM))
# [7] = KG-1, KG1 control cell line, averaged values, read-out: Spheroid assay KG1 (IC50 (μM))
# [8] = Homo sapiens, MV4-11, MV-4-11, averaged values, read-out: Spheroid assay MV-4-11 (IC50 (μM))
# [9] = Homo sapiens, MOLM-14, MOLM14, averaged values, read-out: Spheroid assay MOLM14 (IC50 (μM))
# [10] = KG-1, 192 h, KG1 (MLL wildtype control), 8 d, absolute IC50 from AUC of confluence, individual measurements (not averaged), read-out: (2) Spheroid assay KG1 (IC50 (μM))
# [11] = MOLM14 (MLL-AF9), 8 d, absolute IC50 from AUC of confluence, individual measurements (not averaged), read-out: (2) Spheroid assay MOLM14 (IC50 (μM))
# [12] = 100 nM menin, 5 nM FITC-MBM1 peptide, individual measurements (not averaged), read-out: (1) Menin FP assay (IC50 (μM))
SMILES,"IC50 [1, 6] [µM]","IC50 [2, 7] [µM]","IC50 [3, 8] [µM]","IC50 [4, 9] [µM]",also measured
CC(C)C[C@H](c1cnn(C)c1)N1CC2(CCN(c3ncnc4sc(CC(F)(F)F)cc34)C2)C1 [Compound 247],> 15,> 15,0.45,2.1,
CC(C)[C@H](c1cnn(C)c1)N1CC2(CCN(c3ncnc4sc(CC(F)(F)F)cc34)C2)C1 [Compound 274],> 15,> 15,0.36,2.3,
CC(C)[C@H](C1CNC1)N1CC2(CCN(c3ncnc4sc(CC(F)(F)F)cc34)C2)C1 [Compound 273],10.3,12,0.08,0.86,"IC50 ([5]; averaged values over all measurements, read-out: Menin FP assay (IC50 (μM))): 0.021 µM"
CC(C)C(CC1CCNCC1)N1CC2(CCN(c3ncnc4sc(CC(F)(F)F)cc34)C2)C1 (stereo not shown) [Compound 315],,> 15,0.32,1.5,
CC(C)C(Cc1ccccc1)N1CC2(CCN(c3ncnc4sc(CC(F)(F)F)cc34)C2)C1 (stereo not shown) [Compound 182],,> 15,0.78,1.9,
"CC(C1CCOCC1)N1CC2(CCN(c3ncnc4sc(CC(F)(F)F)cc34)C2)C1 (single isomer, unassigned) [Compound 155]",,> 15,0.7,1.2,
"FC(F)(F)Cc1cc2c(N3CC[C@]4(CCN(Cc5ccccc5)C4)C3)ncnc2s1 (single isomer, unassigned) [Compound 20b]",,,,,"IC50 ([1]; 192 h, K562 (MLL wildtype control), 8 d, absolute IC50 from AUC of confluence, individual measurements (not averaged), read-out: (2) Spheroid assay K562 (IC50 (μM))): > 15 µM; IC50 [2, 10]: > 15 µM; IC50 ([3]; Homo sapiens, MV4-11, 192 h, MV-4-11 (MLL-AF4), 8 d, absolute IC50 from AUC of confluence, individual measurements (not averaged), read-out: (2) Spheroid assay MV-4-11 (IC50 (μM))): 0.51 µM; IC50 [4, 11]: > 15 µM and 2.5 µM; IC50 [5, 12]: 0.038 µM"
CC(C)[C@@H](c1cn[nH]c1)N1CC2(CCN(c3ncnc4sc(CC(F)(F)F)cc34)C2)C1 [Compound 245],,> 15,0.32,2,
CC(C)[C@H](C1CCOCC1)N1CC2(CCN(c3ncnc4sc(CC(F)(F)F)cc34)C2)C1 [Compound 193],> 15,> 15,0.65,1.7,
CC(C)C(c1cnn(C(C)C)c1)N1CC2(CCN(c3ncnc4sc(CC(F)(F)F)cc34)C2)C1 (stereo not shown) [Compound 214],,> 15,0.76,1.4,
CC(Cc1ccc(F)cc1)N1CC2(CCN(c3ncnc4sc(CC(F)(F)F)cc34)C2)C1 (stereo not shown) [Compound 84],,> 15,0.58,1.5,
CC(C)[C@H](C1CN(C)C1)N1CC2(CCN(c3ncnc4sc(CC(F)(F)F)cc34)C2)C1 [Compound 196],> 15,> 15,0.3,1.1,
CC(C)[C@H](C1CCNCC1)N1CC2(CCN(c3ncnc4sc(CC(F)(F)F)cc34)C2)C1 [Compound 168],11.9,15,0.19,0.86,
N#Cc1cc2cc(CN3CC4(CCN(c5ncnc6sc(CC(F)(F)F)cc56)C4)C3)ccc2[nH]1 [Compound 17],,,,,"IC50 [2, 10]: 11 µM; IC50 ([3]; MV-4-11 (MLL-AF4), 8 d, absolute IC50 from AUC of confluence, individual measurements (not averaged), read-out: (2) Spheroid assay MV-4-11 (IC50 (μM))): 4.9 µM and 0.76 µM and 0.84 µM; IC50 ([4]; Homo sapiens, MOLM-14, 192 h, MOLM14 (MLL-AF9), 8 d, absolute IC50 from AUC of confluence, individual measurements (not averaged), read-out: (2) Spheroid assay MOLM14 (IC50 (μM))): 3.4 µM; IC50 [4, 11]: 2.3 µM; IC50 [5, 12]: 0.054 µM"
CC(C)C(c1cnn(CCO)c1)N1CC2(CCN(c3ncnc4sc(CC(F)(F)F)cc34)C2)C1 (stereo not shown) [Compound 62],,> 15,0.64,4,
C[C@@H]1CN[C@H](C(=O)N2CC3(C2)CN(c2ncnc4sc(CC(F)(F)F)cc24)C3)C1 [Compound 82],> 15,> 15,0.38,1.8,
CC[C@H](c1cnn(C)c1)N1CC2(CCN(c3ncnc4sc(CC(F)(F)F)cc34)C2)C1 [Compound 220],> 15,> 15,0.65,4.7,
CC(C)C(N1CC2(CCN(c3ncnc4sc(CC(F)(F)F)cc34)C2)C1)C1(F)CNC1 (stereo not shown) [Compound 269],,> 15,0.67,4.6,
"Fc1ccc(CN2CC[C@@]3(CCN(c4ncnc5sc(CC(F)(F)F)cc45)C3)C2)cc1 (single isomer, unassigned) [Compound 292]",,> 15,0.29,1.5,
